Values of other authors, collected in PMC9516332 (Frontiers in Oncology, 2022).

How the values were obtained:
[1] = target: panel of 255 wild-type kinases (Homo sapiens, UniProt O75116); details: kinase ROCK2; 1 µmol/L single concentration; ref DOI: 10.1158/1535-7163.MCT-18-0877; cited from earlier work
[2] = target: panel of 255 wild-type kinases (Homo sapiens, UniProt P00533); details: kinase EGFR; 1 µmol/L single concentration; ref DOI: 10.1158/1535-7163.MCT-18-0877; cited from earlier work
[3] = target: panel of 255 wild-type kinases (Homo sapiens, UniProt P08631); details: kinase HCK; 1 µmol/L single concentration; ref DOI: 10.1158/1535-7163.MCT-18-0877; cited from earlier work
[4] = target: panel of 255 wild-type kinases (Homo sapiens, UniProt P10721); details: kinase KIT; 1 µmol/L single concentration; ref DOI: 10.1158/1535-7163.MCT-18-0877; cited from earlier work
[5] = target: panel of 255 wild-type kinases (Homo sapiens, UniProt P19784); details: kinase CK2α2/β; 1 µmol/L single concentration; ref DOI: 10.1158/1535-7163.MCT-18-0877; cited from earlier work
[6] = target: T1, panel of 255 wild-type kinases (Homo sapiens, UniProt P53778); details: p38γ; 1 µmol/L single concentration; ref DOI: 10.1158/1535-7163.MCT-18-0877; cited from earlier work
T1 sequence (P53778 1-367): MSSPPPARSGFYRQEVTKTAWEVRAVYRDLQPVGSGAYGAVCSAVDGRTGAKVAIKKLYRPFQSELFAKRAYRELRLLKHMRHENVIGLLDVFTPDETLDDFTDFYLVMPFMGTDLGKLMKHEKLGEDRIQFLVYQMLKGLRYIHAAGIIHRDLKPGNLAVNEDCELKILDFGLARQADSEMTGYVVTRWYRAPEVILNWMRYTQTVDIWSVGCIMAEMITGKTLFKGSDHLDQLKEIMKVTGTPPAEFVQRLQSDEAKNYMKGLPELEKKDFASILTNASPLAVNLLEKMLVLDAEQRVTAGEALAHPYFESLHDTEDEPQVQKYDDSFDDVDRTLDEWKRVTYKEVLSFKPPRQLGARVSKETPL

[7] = target: T2, panel of 255 wild-type kinases (Homo sapiens, UniProt P54762); details: kinase EPHB1; 1 µmol/L single concentration; ref DOI: 10.1158/1535-7163.MCT-18-0877; cited from earlier work
T2 sequence (P54762 18-984): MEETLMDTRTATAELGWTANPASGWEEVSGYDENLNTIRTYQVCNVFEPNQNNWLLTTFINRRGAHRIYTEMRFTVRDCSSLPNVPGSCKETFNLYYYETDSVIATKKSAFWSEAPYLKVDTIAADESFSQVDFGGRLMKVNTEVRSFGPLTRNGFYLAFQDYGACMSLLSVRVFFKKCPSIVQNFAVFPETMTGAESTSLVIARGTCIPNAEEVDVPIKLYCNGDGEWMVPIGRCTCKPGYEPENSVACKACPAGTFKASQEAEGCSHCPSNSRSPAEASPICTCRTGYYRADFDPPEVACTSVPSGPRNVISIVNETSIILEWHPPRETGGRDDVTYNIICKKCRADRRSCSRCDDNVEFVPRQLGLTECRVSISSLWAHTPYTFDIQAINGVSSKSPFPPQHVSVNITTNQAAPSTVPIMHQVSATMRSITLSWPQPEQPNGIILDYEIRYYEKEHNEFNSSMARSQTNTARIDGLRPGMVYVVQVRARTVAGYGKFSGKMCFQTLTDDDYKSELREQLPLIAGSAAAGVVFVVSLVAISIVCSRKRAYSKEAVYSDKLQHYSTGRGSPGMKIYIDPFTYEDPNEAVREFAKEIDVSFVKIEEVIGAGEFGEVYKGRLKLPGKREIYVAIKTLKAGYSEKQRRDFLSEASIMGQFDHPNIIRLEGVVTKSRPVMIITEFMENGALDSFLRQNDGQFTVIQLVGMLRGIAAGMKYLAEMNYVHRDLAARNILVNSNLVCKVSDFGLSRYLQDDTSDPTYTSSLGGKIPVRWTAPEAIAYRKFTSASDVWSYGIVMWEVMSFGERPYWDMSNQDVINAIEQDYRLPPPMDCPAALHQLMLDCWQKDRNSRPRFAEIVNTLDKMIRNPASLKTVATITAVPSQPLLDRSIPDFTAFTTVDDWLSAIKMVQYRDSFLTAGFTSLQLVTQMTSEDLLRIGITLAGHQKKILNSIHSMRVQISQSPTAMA

[8] = target: panel of 255 wild-type kinases (Homo sapiens, UniProt Q13557); details: CaMK2δ kinase assay; 1 µmol/L single concentration; ref DOI: 10.1158/1535-7163.MCT-18-0877; cited from earlier work
[9] = target: T3, panel of 255 wild-type kinases (Homo sapiens, UniProt Q8IW41); details: MAPKAPK5; 1 µmol/L single concentration; ref DOI: 10.1158/1535-7163.MCT-18-0877; cited from earlier work
T3 sequence (Q8IW41 1-473): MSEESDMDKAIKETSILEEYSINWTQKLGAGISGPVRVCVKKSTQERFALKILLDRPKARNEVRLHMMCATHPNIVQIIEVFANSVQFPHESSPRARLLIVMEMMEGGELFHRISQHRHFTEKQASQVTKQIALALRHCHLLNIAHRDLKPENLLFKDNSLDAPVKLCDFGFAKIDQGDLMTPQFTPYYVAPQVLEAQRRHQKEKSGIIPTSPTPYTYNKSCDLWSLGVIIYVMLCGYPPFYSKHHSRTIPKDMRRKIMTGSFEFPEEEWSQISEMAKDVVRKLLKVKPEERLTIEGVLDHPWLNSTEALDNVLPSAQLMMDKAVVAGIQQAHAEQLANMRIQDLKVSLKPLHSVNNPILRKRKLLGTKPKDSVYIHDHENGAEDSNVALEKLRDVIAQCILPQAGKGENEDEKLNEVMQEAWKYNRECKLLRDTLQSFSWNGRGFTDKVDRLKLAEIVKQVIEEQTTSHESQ

[10] = target: panel of 255 wild-type kinases (Homo sapiens, UniProt Q9Y243); details: AKT3 kinase assay; 1 µmol/L single concentration; ref DOI: 10.1158/1535-7163.MCT-18-0877; cited from earlier work

## CC#CC(=O)N1CCC[C@H]1c1nc(-c2ccc(C(=O)Nc3ccccn3)cc2)c2c(N)nccn12 [acalabrutinib]
[1]
  %-inhibition at 1 µmol/L, ROCK2: -2.29%
[2]
  %-inhibition at 1 µmol/L, EGFR: 19%
[3]
  %-inhibition at 1 µmol/L, HCK: 0.452%
[4]
  %-inhibition at 1 µmol/L, KIT: 3%
[5]
  %-inhibition at 1 µmol/L, CK2α2/β: 10%
[6]
  %-inhibition, p38γ: -1.74%
[7]
  %-inhibition at 1 µmol/L, EPHB1: -1.4%
[8]
  %-inhibition CaMK2δ: -3.53%
[9]
  %-inhibition, MAPKAPK5: -1.87%
[10]
  %-inhibition AKT3: -5%
